Reference: patent US20150231162A1, “FRUCTOSE ABSORPTION INHIBITOR” (Nagaoka Perfumery Co., Ltd., priority 2011, published 2015)

The molecules below were run on human colon carcinoma cell line, Caco-2 (assay: Fructose absorption inhibitory activity in the intestinal tracts (fructose permeation across a Caco-2 monolayer in Transwell inserts)). Settings: Dosage 5 μg/ml; 50 mM fructose, 3 h, Caco-2 Transwell.
Format: cell-based
Experimental: Evaluation of fructose absorption inhibitory activity was carried out using the human colon carcinoma cell line, Caco-2 (manufactured by Dainippon Sumitomo Pharma Co., Ltd.) utilized for model experiments of the small intestinal mucosa. […] Caco-2 cells were seeded in a 6-well Transwell Insert (internal area: 4.2 cm2) and subcultured for around 3 weeks, while DMEM medium was replaced once every 3 to 4 days, until the Caco-2 cell density became around 2×10^5 cells/insert. The TEER value was measured before experiments and the state of Caco-2 cells was confirmed. […] Medium in the 6-well Transwell Insert was removed. […] A sample solution of each sample illustrated in Table 1 was added to the insert and each mixture was preincubated for 5 min. […] The TEER values were measured. […] The measurement was carried out three times for each sample illustrated in Table 1. The fructose concentrations of the permeated solutions were measured by an enzymatic method using D-fructose dehydrogenase (derived from Gluconobac sp.) (The concentration of each reagent represents the final concentration, respectively.). […] The fructose absorption inhibitory rate of each compound was determined using the following formula (I). […] As control, measurement was also carried out for gallic acid, ellagic acid, quercetin, (+)-catechin, (−)-epicatechin and (−)-epigallocatechin gallate.

Row | Molecule | Inhibitory Rate [%]
1 | O=C(O[C@H]1[C@@H]2OC(=O)c3cc(O)c(O)c(O)c3-c3c(cc(O)c(O)c3O)C(=O)OC[C@H]2OC(O)[C@@H]1OC(=O)c1cc(O)c(O)c(O)c1)c1cc(O)c(O)c(O)c1 (stereo partly shown) [compound 1, Tellimagrandin I] | 49
2 | O=C(O[C@@H]1O[C@@H]2COC(=O)c3cc(O)c(O)c(O)c3-c3c(cc(O)c(O)c3O)C(=O)O[C@H]2[C@H](OC(=O)c2cc(O)c(O)c(O)c2)[C@H]1O)c1cc(O)c(O)c(O)c1 [compound 5, 1,3-di-O-galloyl-4,6-HHDP-β-D-glucose] | 57
3 | O=C(O[C@H]1[C@@H]2OC(=O)c3cc(O)c(O)c(O)c3-c3c4cc(c(O)c3O)Oc3c(cc(O)c(O)c3O)C(=O)O[C@H]3C(O)O[C@@H]5COC(=O)c6cc(O)c(O)c(O)c6-c6c(cc(c(O)c6O)Oc6c(cc(O)c(O)c6O)C(=O)O[C@H]1C(O)O[C@@H]2COC4=O)C(=O)O[C@H]5[C@@H]3OC(=O)c1cc(O)c(O)c(O)c1)c1cc(O)c(O)c(O)c1 (stereo partly shown) [compound 7, Oenothein B] | 63
4 | (−)-epigallocatechin gallate [compound 16, reference compound] | 28
5 | Eugeniflorin D2 [compound 6] | 53

Same assay, conditions: Dosage 50 μg/ml; 50 mM fructose, 3 h, Caco-2 Transwell

Row | Molecule | Inhibitory Rate [%]
6 | Oc1cc(O)c2c(c1)O[C@H](c1ccc(O)c(O)c1)[C@@H](O)C2 [compound 14, (+)-catechin, reference compound] | <10
7 | Oc1cc(O)c2c(c1)O[C@H](c1ccc(O)c(O)c1)[C@H](O)C2 [compound 15, (−)-epicatechin, reference compound] | <10

Same assay, conditions: Homo sapiens; Dosage 5 μg/ml; 50 mM fructose, 3 h, Caco-2 Transwell; read-out: Inhibitory Rate

Row | Molecule | inhibition at 5 µg/mL [%]
8 | O=C(OC1O[C@@H]2COC(=O)c3cc(O)c(O)c(O)c3-c3c(cc(O)c(O)c3O)C(=O)O[C@H]2[C@H](OC(=O)c2cc(O)c(O)c(O)c2)[C@H]1OC(=O)c1cc(O)c(O)c(O)c1)c1cc(O)c(O)c(O)c1 (stereo partly shown) [compound 2, Tellimagrandin II] | 52
9 | O=C(O[C@@H]1O[C@@H]2COC(=O)c3cc(O)c(O)c(O)c3-c3c(cc(O)c(O)c3O)C(=O)O[C@H]2[C@H](O)[C@H]1O)c1cc(O)c(O)c(O)c1 [compound 3, Strictinin] | 43
10 | O=C(O[C@@H]1O[C@@H]2COC(=O)c3cc(O)c(O)c(O)c3-c3cc(c(O)c(O)c3O)C(=O)O[C@H]2[C@@H]2OC(=O)c3cc(O)c(O)c(O)c3-c3c(cc(O)c(O)c3O)C(=O)O[C@@H]12)c1cc(O)c(O)c(O)c1 [compound 4, Casuarictin] | 46

Same assay, conditions: Homo sapiens; Dosage 50 μg/ml; 50 mM fructose, 3 h, Caco-2 Transwell; read-out: Inhibitory Rate

Row | Molecule | inhibition at 50 µg/mL [%]
11 | O=C(O)c1cc(O)c(O)c(O)c1 [compound 11, Gallic acid, reference compound] | 19
12 | O=c1oc2c(O)c(O)cc3c(=O)oc4c(O)c(O)cc1c4c23 [compound 12, Ellagic acid, reference compound] | 22
13 | O=c1c(O)c(-c2ccc(O)c(O)c2)oc2cc(O)cc(O)c12 [compound 13, Quercetin, reference compound] | 23
